Data on 22 compounds can be found in US11306078B2, “Piperidine CXCR7 receptor modulators” (IDORSIA PHARMACEUTICALS LTD., priority 2016, dated 2022).

The target of the assay is human chemokine receptor CXCR7 (Homo sapiens (Human), UniProt P25106). Nature of the assay: Tango CXCR7-bla U2OS beta-arrestin recruitment assay (beta-lactamase reporter, FRET), antagonism of CXCL12/SDF1-α.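 Further: compounds preincubated 15 min before CXCL12 addition, then 22 h at 37 °C, FRET emission ratio read with CCF4-AM substrate after 2 h.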 It counts as cell-based. Particulars: antagonistic effect on CXCR7; Tango CXCR7-bla U2OS cells, CXCL12/SDF1-α at its EC80.
Sequence of human chemokine receptor CXCR7 (P25106 whole entry): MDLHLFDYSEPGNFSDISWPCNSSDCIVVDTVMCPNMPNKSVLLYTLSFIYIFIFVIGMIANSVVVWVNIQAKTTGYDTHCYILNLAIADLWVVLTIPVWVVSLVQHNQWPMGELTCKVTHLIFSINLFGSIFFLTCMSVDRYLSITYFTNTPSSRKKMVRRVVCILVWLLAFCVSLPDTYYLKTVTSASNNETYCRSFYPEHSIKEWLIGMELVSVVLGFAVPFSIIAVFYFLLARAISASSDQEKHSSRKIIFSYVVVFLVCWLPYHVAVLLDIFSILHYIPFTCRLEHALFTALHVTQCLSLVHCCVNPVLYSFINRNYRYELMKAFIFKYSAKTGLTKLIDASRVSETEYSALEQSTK
Take `Cc1ccc(-c2cc(C(=O)N[C@H]3CCN(CC4CC4)C[C@@H]3C(=O)NC3(c4ncccn4)CC3)no2)cc1C` [Example 7.003, (3S,4S)-1-Cyclopropylmethyl-4-{[5-(3,4-dimethyl-phenyl)-isoxazole-3-carbonyl]-amino}-piperidine-3-carboxylic acid (1-pyrimidin-2-yl-cyclopropyl)-amide]: it took 0.21 µM to reach half-maximal inhibition (IC50). This counts as sub-micromolar.

`O=C(N[C@@H]1CCN(C2CCCCC2)C[C@H]1C(=O)NCc1ncccn1)c1cc(-c2ccc(F)cc2F)on1` (racemic) [Example 1.032, rac-(3R*,4R*)-1-Cyclohexyl-4-{[5-(2,4-difluoro-phenyl)-isoxazole-3-carbonyl]-amino}-piperidine-3-carboxylic acid (pyrimidin-2-ylmethyl)-amide] came in with an IC50 of 0.154 µM.

`C[C@@H]1CCC[C@H]1N1CC[C@@H](NC(=O)c2cn(-c3ccc(F)cc3F)nn2)[C@H](C(=O)N[C@H](C)C2CCC2)C1` (relative stereo) [Example 1.137, (3R*,4R*)-4-{[1-(2,4-Difluoro-phenyl)-1H-[1,2,3]triazole-4-carbonyl]-amino}-1-((1RS,2RS)-2-Methyl-cyclopentyl)-piperidine-3-carboxylic acid ((R)-1-cyclobutyl-ethyl)-amide] gave an IC50 of 0.919 µM.

`O=C(N[C@@H]1CCN(CC2CC2)C[C@H]1C(=O)NCCc1ccccn1)c1cc(-c2ccc(F)cc2F)on1` [Example 2.08]: the IC50 is 0.311 µM. Against the preceding compound, the IC50 is about 3-fold lower.

Turning to `CN(CCc1ccccn1)C(=O)[C@@H]1CN(C2CCCCC2)CC[C@H]1NC(=O)c1cc(-c2ccc(F)cc2F)on1` (racemic) [Example 1.075, rac-(3R*,4R*)-1-Cyclohexyl-4-{[5-(2,4-difluoro-phenyl)-isoxazole-3-carbonyl]-amino}-piperidine-3-carboxylic acid methyl-(2-pyridin-2-yl-ethyl)-amide], the concentration for half-maximal inhibition (IC50) worked out at 0.044 µM.

In the case of `C[C@@H](NC(=O)[C@@H]1CN(C2CCCC2)CC[C@H]1NC(=O)c1cc(-c2c(F)cc(F)cc2F)on1)c1ccccn1` (relative stereo) [Example 1.122, (3R*,4R*)-1-Cyclopentyl-4-{[5-(2,4,6-trifluoro-phenyl)-isoxazole-3-carbonyl]-amino}-piperidine-3-carboxylic acid ((R)-1-pyridin-2-yl-ethyl)-amide], the IC50 turned out to be 0.01 µM. Against the preceding compound, the IC50 is about 4.4-fold lower.

Take `O=C(N[C@@H]1CCN(C2CCC2)C[C@H]1C(=O)NC1(c2cccc(Cl)c2)COC1)c1cc(-c2ccc(F)cc2F)on1` [Example 4.094]: half-maximal inhibition (IC50) required 0.201 µM.

`CC(NC(=O)[C@H]1CN(C2CCCC2)CC[C@@H]1NC(=O)c1cc(-c2ccc(F)cc2F)on1)c1ccn[nH]1` (stereo partly shown) [Example 4.041] came in with an IC50 of 0.096 µM. Compared with the last compound, the IC50 is about 2.1-fold lower.

As to `CC(C)N1CC[C@@H](NC(=O)c2cc(-c3ccc(F)cc3F)on2)[C@H](C(=O)N(C)C)C1` (racemic) [Example 2.001, rac-(3R*,4R*)-4-{[5-(2,4-Difluoro-phenyl)-isoxazole-3-carbonyl]-amino}-1-isopropyl-piperidine-3-carboxylic Acid Dimethylamide], the IC50 turned out to be 0.209 µM.

`O=C(N[C@@H]1CCN(C2CCCC2)C[C@H]1C(=O)N1CCC1)c1cc(-c2c(F)cc(F)cc2F)on1` (racemic) [Example 1.106, rac-5-(2,4,6-Trifluoro-phenyl)-isoxazole-3-carboxylic acid [(3R*,4R*)-3-(azetidine-1-carbonyl)-1-cyclopentyl-piperidin-4-yl]-amide] registered an IC50 of 0.248 µM. The IC50 values of the last two compounds are within 1.5-fold of each other.

Regarding `CN(C)C(=O)[C@@H]1CN(C2CCCC2)CC[C@H]1NC(=O)c1cc(-c2ccc(F)cc2F)on1` [Example 2.019a], the IC50 was 0.044 µM.

The compound `C[C@@H](NC(=O)[C@@H]1CN(C2CCCCC2)CC[C@H]1NC(=O)c1cc(-c2ccc(F)cc2F)no1)C1CCC1` [Example 1.14] showed an IC50 of 0.358 µM.

The compound `C[C@@H](NC(=O)[C@@H]1CN(C2CCCCC2)CC[C@H]1NC(=O)c1cc(-c2ccc(F)cc2F)on1)C(C)(C)C` (relative stereo) [Example 1.093, (3R*,4R*)-1-Cyclohexyl-4-{[5-(2,4-difluoro-phenyl)-isoxazole-3-carbonyl]-amino}-piperidine-3-carboxylic acid ((R)-1,2,2-trimethyl-propyl)-amide] had an IC50 of 0.867 µM.

In turn, `C[C@@H](NC(=O)[C@@H]1CN(CC2CC2)CC[C@H]1NC(=O)c1cn(-c2ccc(F)cc2F)nn1)c1ccccn1` (relative stereo) [Example 1.119, (3R*,4R*)-1-Cyclopropylmethyl-4-{[1-(2,4-difluoro-phenyl)-1H-[1,2,3]triazole-4-carbonyl]-amino}-piperidine-3-carboxylic acid ((R)-1-pyridin-2-yl-ethyl)-amide] yielded an IC50 of 0.146 µM. Against the preceding compound, the IC50 is about 5.9-fold lower.

`O=C(N[C@@H]1CCN(C2CCCCC2)C[C@H]1C(=O)N1CCC1)c1cn(-c2ccc(F)cc2F)nn1` (racemic) [Example 1.104, rac-1-(2,4-Difluoro-phenyl)-1H-[1,2,3]triazole-4-carboxylic acid [(3R*,4R*)-3-(azetidine-1-carbonyl)-1-cyclohexyl-piperidin-4-yl]-amide] had an IC50 of 0.964 µM.

The compound `O=C(N[C@H]1CCN(C2CCCC2)C[C@@H]1C(=O)NC1(c2cnccn2)CC1)c1cc(-c2ccc(F)cc2F)on1` [Example 1.181, (3S,4S)-1-Cyclopentyl-4-{[5-(2,4-difluoro-phenyl)-isoxazole-3-carbonyl]-amino}-piperidine-3-carboxylic acid (1-pyrazin-2-yl-cyclopropyl)-amide] showed an IC50 of 0.104 µM.

Regarding `C[C@@H](NC(=O)[C@@H]1CN([C@@H]2CCCC[C@H]2O)CC[C@H]1NC(=O)c1cc(-c2ccc(F)cc2F)on1)c1ccccn1` [Example 2.053], the concentration for half-maximal inhibition (IC50) was 0.026 µM.

Take `Cc1ccc(CCNC(=O)[C@@H]2CN(C3CCCCC3)CC[C@H]2NC(=O)c2cc(-c3ccc(F)cc3F)on2)cc1` (racemic) [Example 1.062, rac-(3R*,4R*)-1-Cyclohexyl-4-{[5-(2,4-difluoro-phenyl)-isoxazole-3-carbonyl]-amino}-piperidine-3-carboxylic acid (2-p-tolyl-ethyl)-amide]: it took 0.016 µM to reach half-maximal inhibition (IC50).

Consider `O=C(N[C@@H]1CCN(C2CCCC2)C[C@H]1C(=O)NC1(c2ccccn2)CC1)c1cc(-c2ccc(F)cc2F)no1` (racemic) [Example 1.173, rac-(3R*,4R*)-1-Cyclopentyl-4-{[3-(2,4-difluoro-phenyl)-isoxazole-5-carbonyl]-amino}-piperidine-3-carboxylic acid (1-pyridin-2-yl-cyclopropyl)-amide], for which the IC50 was 0.11 µM.

As for `COCC(C)(C)NC(=O)[C@@H]1CN(C2CCCCC2)CC[C@H]1NC(=O)c1cc(-c2c(F)cc(F)cc2F)on1` (single isomer, unassigned) [Example 1.111b, (3R*,4R*)-1-Cyclohexyl-4-{[5-(2,4,6-trifluoro-phenyl)-isoxazole-3-carbonyl]-amino}-piperidine-3-carboxylic acid (2-methoxy-1,1-dimethyl-ethyl)-amide], the IC50 was determined as 0.114 µM.

As to `O=C(N[C@H]1CCN(CC2CC2(F)F)C[C@@H]1C(=O)NC1(c2ncccn2)CC1)c1cc(-c2ccc(F)cc2F)on1` (stereo partly shown) [Example 2.084], inhibition was half-maximal at 0.008 µM (IC50).

In turn, `CN(C)C(=O)[C@@H]1CN(CC2CC2)CC[C@H]1NC(=O)c1cc(-c2ccc(F)cc2F)no1` (racemic) [Example 1.149, rac-(3R*,4R*)-1-Cyclopropylmethyl-4-{[3-(2,4-difluoro-phenyl)-isoxazole-5-carbonyl]-amino}-piperidine-3-carboxylic acid dimethylamide] showed a half-maximal inhibitory concentration (IC50) of 0.276 µM.
